In paper PMC9511441, “Semisynthetic teicoplanin derivatives with dual antimicrobial activity against SARS-CoV-2 and multiresistant bacteria” (Scientific Reports, 2022):
In brackets after ≈: the same amount, converted by molar mass. Like-named read-outs stand apart in the source and are kept apart here.

What was measured:
[1] = tested on: VeroE6 cells; test: Cytotoxicity in mock-infected VeroE6 cells (XTT); assay type: cell-based, African green monkey; settings: mock-infected Vero E6 cells, three days, XTT
[2] = tested on: HEL cells; test: Cytotoxicity in mock-infected HEL cells (MTS); assay type: cell-based, human; settings: mock-infected HEL cells, MTS, mean of 2–3 tests
[3] = molecular target: T1, human recombinant cathepsin L (Homo sapiens, UniProt P07711); test: biochemical; assay type: biochemical; settings: read-out: Cathepsin L IC50; pH 5.5, Z-Phe-Arg-AMC substrate
T1 construct: made in house; host or cells: Escherichia coli
T1 sequence (P07711 114-333): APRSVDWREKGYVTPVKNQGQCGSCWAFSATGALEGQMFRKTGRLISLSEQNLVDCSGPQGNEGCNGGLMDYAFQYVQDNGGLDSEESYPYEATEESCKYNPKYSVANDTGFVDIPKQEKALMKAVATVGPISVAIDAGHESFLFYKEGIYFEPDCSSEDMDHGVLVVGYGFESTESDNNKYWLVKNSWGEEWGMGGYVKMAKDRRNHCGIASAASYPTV
Description: Cathepsin L inhibition was assessed as reported. Briefly, human recombinant cathepsin L was expressed in Escherichia coli[33]. Enzymatic activity was determined in 100 mM acetate buffer (pH 5.5) containing 0.1% PEG 8000, 5 mM cysteine and 1.5 mM EDTA. The enzyme was first activated in assay buffer for 5 min at 37 °C, after which it was added to the wells of a black microplate containing the Z-Phe-Arg-AMC substrate (Bachem) and compounds. Formation of the fluorescent cleavage product was monitored for 50 min at 37 °C, using a Tecan Infinit M1000 spectrofluorimeter set at 460 nm emission and 380 nm excitation wavelength. All assay mixtures contained 5% (v/v) DMSO and 0.01% Triton X-100 to prevent false-positive inhibition due to formation of compound aggregates. All measurements were performed in triplicate and repeated twice. The relative inhibition was calculated using the equation: Relative inhibition (%) = 100(1 − vi/vo), where vi and vo designate the reaction velocities in the presence and absence of inhibitor, respectively. IC50 values were determined from nine data points at different inhibitor concentrations.

[4] = tested on: E. faecalis; test: MIC, broth microdilution; assay type: cell-based; settings: Enterococcus faecalis
[5] = tested on: S. aureus; test: MIC, broth microdilution; assay type: cell-based; settings: Staphylococcus aureus
[6] = tested on: S. haemolyticus; test: MIC, broth microdilution; assay type: cell-based; settings: Staphylococcus haemolyticus
[7] = tested on: S.pyogenes; test: MIC, broth microdilution; assay type: cell-based; settings: Streptococcus pyogenes
[8] = tested on: E. faecium; test: microbe, parasite or virus in culture; assay type: cell-based; settings: Enterococcus faecium
[9] = tested on: S. epidermidis; test: microbe, parasite or virus in culture; assay type: cell-based; settings: Staphylococcus epidermidis
[10] = tested on: HCoV-229E; settings: earlier work; read-out: EC50 against human coronavirus 229E (HCoV-229E); cited from earlier work
[11] = tested on: a panel of bacteria including MRSA; parameters: method as in PMID 32652783; settings: earlier work; cited from earlier work

## CC(=O)N[C@H]1[C@H](O[C@@H]2c3ccc(c(Cl)c3)Oc3cc4cc(c3O)Oc3ccc(cc3Cl)C[C@H]3NC(=O)[C@H](n5cc(COCCOCCCC(F)(F)C(F)(F)C(F)(F)C(F)(F)F)nn5)c5ccc(O)c(c5)Oc5cc(O)cc(c5)[C@H](NC3=O)C(=O)N[C@H]4C(=O)N[C@H]3C(=O)N[C@@H]2C(=O)N[C@H](C(=O)O)c2cc(O)cc(O)c2-c2cc3ccc2O)O[C@H](CO)[C@@H](O)[C@@H]1O [Compound 2]
[1]
  CC50: > 100 µM
[2]
  CC50: > 100 µM
[3]
  IC50: 98 ± 1 µM
[4]; read-out: Average MIC value, E. faecalis VAN^R,TEI^R/VanA, 1 strain
  MIC: > 8 µg/mL
[4]; read-out: Average MIC value, E. faecalis VAN^S, TEI^S, 2 strains
  MIC: 1 µg/mL (≈ 0.559 µM)
[4]; read-out: MIC value, E.faecalis JH2-2
  MIC: 1 µg/mL (≈ 0.559 µM)
[4]; read-out: MIC value, E.faecalis OG1RF
  MIC: 1 µg/mL (≈ 0.559 µM)
[4]; read-out: MIC value, E.faecalis V583, VAN,TEI/VanA
  MIC: > 8 µg/mL
[5]; ATCC 29213 / MSSA, read-out: MIC value, S. aureus ATCC29213, MSSA
  MIC: 0.0625 µg/mL (≈ 0.0349 µM)
[5]; MRSA / USA300, read-out: MIC value, S. aureus USA300, CA-MRSA
  MIC: 0.25 µg/mL (≈ 0.14 µM)
[5]; MRSA, read-out: Average MIC value, S. aureus CA-MRSA, 1 strain
  MIC: 0.25 µg/mL (≈ 0.14 µM)
[5]; MRSA, read-out: Average MIC value, S. aureus MRSA, 7 strains
  MIC: 0.285 µg/mL (≈ 0.159 µM)
[5]; MRSA, read-out: MIC value, S. aureus 73OL, MRSA
  MIC: 0.25 µg/mL (≈ 0.14 µM)
[5]; MRSA, read-out: MIC value, S. aureus 214OL, MRSA
  MIC: 0.25 µg/mL (≈ 0.14 µM)
[5]; MRSA, read-out: MIC value, S. aureus 1041OL, MRSA
  MIC: 0.25 µg/mL (≈ 0.14 µM)
[5]; MRSA, read-out: MIC value, S. aureus A6918, MRSA
  MIC: 0.5 µg/mL (≈ 0.28 µM)
[5]; MRSA, read-out: MIC value, S. aureus A6919, MRSA
  MIC: 0.25 µg/mL (≈ 0.14 µM)
[5]; MRSA, read-out: MIC value, S. aureus Mu50, MRSA
  MIC: 0.25 µg/mL (≈ 0.14 µM)
[5]; MRSA, read-out: MIC value, S. aureus N315, MRSA
  MIC: 0.25 µg/mL (≈ 0.14 µM)
[5]; MSSA / NEWMAN, read-out: MIC value, S. aureus Newman, MSSA
  MIC: 0.5 µg/mL (≈ 0.28 µM)
[5]; MSSA, read-out: Average MIC value, S. aureus MSSA, 4 strains
  MIC: 0.265 µg/mL (≈ 0.148 µM)
[5]; MSSA, read-out: MIC value, S. aureus MSSA476, MSSA
  MIC: 0.25 µg/mL (≈ 0.14 µM)
[5]; MSSA, read-out: MIC value, S. aureus SA564, MSSA
  MIC: 0.25 µg/mL (≈ 0.14 µM)
[6]; S. haemolyticus mecA, 6 strains, read-out: Average MIC value
  MIC: 1.9 µg/mL (≈ 1.06 µM)
[6]; S.haemolyticus DALB_R1, mecA, read-out: MIC value
  MIC: 4 µg/mL (≈ 2.24 µM)
[6]; S.haemolyticus DALB_R2, mecA, read-out: MIC value
  MIC: 2 µg/mL (≈ 1.12 µM)
[6]; S.haemolyticus DALB_R3, mecA, read-out: MIC value
  MIC: 2 µg/mL (≈ 1.12 µM)
[6]; S.haemolyticus DALB_R4, mecA, read-out: MIC value
  MIC: 2 µg/mL (≈ 1.12 µM)
[6]; S.haemolyticus DALB_R5, mecA, read-out: MIC value
  MIC: 0.5 µg/mL (≈ 0.28 µM)
[6]; S.haemolyticus ORI_R1, mecA, read-out: MIC value
  MIC: 1 µg/mL (≈ 0.559 µM)
[7]; read-out: MIC value, S.pyogenes H232
  MIC: 0.0625 µg/mL (≈ 0.0349 µM)
[7]; read-out: MIC value, S.pyogenes H550
  MIC: 0.0625 µg/mL (≈ 0.0349 µM)
[7]; read-out: MIC value, S.pyogenes H578
  MIC: 0.0625 µg/mL (≈ 0.0349 µM)
[8]; read-out: Average MIC value, E. faecium VAN^R,TEI^R/VanA, 8 strains
  MIC: > 8 µg/mL
[8]; read-out: Average MIC value, E. faecium VAN^S, TEI^S, 1 strain
  MIC: 1 µg/mL (≈ 0.559 µM)
[8]; read-out: MIC value, E.faecium E335, VAN,TEI,LNZ/VanA
  MIC: > 8 µg/mL
[8]; read-out: MIC value, E.faecium E355, VAN,TEI,LNZ/VanA
  MIC: > 8 µg/mL
[8]; read-out: MIC value, E.faecium E832, VAN,TEI,LNZ/VanA
  MIC: > 8 µg/mL
[8]; read-out: MIC value, E.faecium E854, VAN,TEI,LNZ/VanA
  MIC: > 8 µg/mL
[8]; read-out: MIC value, E.faecium E859, VAN,TEI,LNZ/VanA
  MIC: > 8 µg/mL
[8]; read-out: MIC value, E.faecium E1114, VAN,TEI,LNZ/VanA
  MIC: > 8 µg/mL
[8]; read-out: MIC value, E.faecium E1131, VAN,TEI,LNZ/VanA
  MIC: > 8 µg/mL
[8]; read-out: MIC value, E.faecium E1132, VAN,TEI,LNZ/VanA
  MIC: > 8 µg/mL
[8]; read-out: MIC value, E.faecium TX0016
  MIC: 1 µg/mL (≈ 0.559 µM)
[9]; read-out: Average MIC value, S. epidermidis mecA, 6 strains
  MIC: 0.645 µg/mL (≈ 0.361 µM)
[9]; read-out: MIC value, S.epidermidis ORI_R1, mecA
  MIC: 0.5 µg/mL (≈ 0.28 µM)
[9]; read-out: MIC value, S.epidermidis ORI_R2, mecA
  MIC: 0.5 µg/mL (≈ 0.28 µM)
[9]; read-out: MIC value, S.epidermidis ORI_R3, mecA
  MIC: 0.25 µg/mL (≈ 0.14 µM)
[9]; read-out: MIC value, S.epidermidis ORI_R4, mecA
  MIC: 0.5 µg/mL (≈ 0.28 µM)
[9]; read-out: MIC value, S.epidermidis TEI_R1, mecA
  MIC: 0.125 µg/mL (≈ 0.0699 µM)
[9]; read-out: MIC value, S.epidermidis TEI_R2, mecA
  MIC: 2 µg/mL (≈ 1.12 µM)
[10]
  EC50: > 100 µM
[11]
  MIC against a panel of bacteria including MRSA: 0.5 to 1 µM
